From patent US10696677B2 (Research Triangle Institute, priority 2016, dated 2020)
Entries after “also recorded” stand apart in the source; their conditions may differ. Read-outs that look alike come from different tables or passages of the source.

Legend:
MDCK = MDCK BBB Assay; format: in vitro ADME; settings: for % Permeable: MDCK BBB assay; for MDCK BBB Assay (Basolateral/Apical Peak Area Ratio) Mean: MDCK cells
hCB1 [1] = target: T1, hCB1 (Homo sapiens, UniProt P21554); assay: functional fluorescent CB1 activated Gαq16-coupled intracellular calcium mobilization assay in CHO-K1 cells; format: cell-based; parameters: expressed in transfected cells; host or cells: CHO-K1 (membranes); settings: average of 3-6 measurements, read-out: Apparent antagonist dissociation constant (Ke) at hCB1
T1 sequence (P21554 whole entry): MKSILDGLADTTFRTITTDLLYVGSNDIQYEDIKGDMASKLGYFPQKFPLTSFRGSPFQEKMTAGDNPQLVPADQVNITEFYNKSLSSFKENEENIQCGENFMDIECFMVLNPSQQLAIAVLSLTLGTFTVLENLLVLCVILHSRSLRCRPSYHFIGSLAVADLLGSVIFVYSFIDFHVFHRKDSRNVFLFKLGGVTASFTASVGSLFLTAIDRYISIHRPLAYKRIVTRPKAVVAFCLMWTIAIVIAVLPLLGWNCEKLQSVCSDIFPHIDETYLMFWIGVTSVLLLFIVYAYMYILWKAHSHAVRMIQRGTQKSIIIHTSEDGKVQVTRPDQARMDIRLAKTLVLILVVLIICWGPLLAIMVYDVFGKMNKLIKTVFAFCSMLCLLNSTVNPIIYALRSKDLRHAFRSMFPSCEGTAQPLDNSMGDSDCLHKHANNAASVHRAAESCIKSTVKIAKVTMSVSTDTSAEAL

hCB1 [2] = target: T1, hCB1; assay: radioligand displacement binding at CB1 (membranes of CHO-K1 cells over-expressing receptor); settings: for CB2 Ki/CB1 Ki selectivity ratio: CB1 versus CB2
Description: (§1) All compounds were characterized by H^1 NMR and evaluated using a calcium mobilization assay. […] Further characterization of select compounds was performed using radioligand displacement of [3H]1 and equilibrium dissociation constant (Ki) values were determined.

hCB2 = hCB2 (Homo sapiens, UniProt P34972); assay: radioligand displacement binding at CB2 ([3H]CP55940, membranes of CHO-K1 cells over-expressing receptor)
Sequence of hCB2 (P34972 whole entry): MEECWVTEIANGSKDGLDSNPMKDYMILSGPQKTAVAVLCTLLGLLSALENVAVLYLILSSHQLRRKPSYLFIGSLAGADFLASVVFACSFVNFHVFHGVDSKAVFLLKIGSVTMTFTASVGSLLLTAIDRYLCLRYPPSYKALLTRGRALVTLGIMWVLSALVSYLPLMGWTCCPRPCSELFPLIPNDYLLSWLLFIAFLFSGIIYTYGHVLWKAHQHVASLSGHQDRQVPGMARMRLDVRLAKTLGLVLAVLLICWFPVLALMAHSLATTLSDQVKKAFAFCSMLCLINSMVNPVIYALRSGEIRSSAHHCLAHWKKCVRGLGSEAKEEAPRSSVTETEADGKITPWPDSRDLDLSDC
Description: as §1

[3] = in vivo brain penetration, brain and plasma levels by LC/MS/MS; settings: mouse, po, mice, cassette dosed orally at 2.5 mg/kg, read-out: Brain:Plasma Ratio
Description: Select compounds were chosen for in vivo studies to determine penetration into the CNS. Compounds were cassette dosed orally at 2.5 mg/kg in mice. Brain and plasma samples were collected at 1, 2, 4, and 24 hours post dose and samples were analyzed by LC/MS/MS (Table 5, below). Unperfused brains were used which contain a blood volume of approximately 4%.

mouse model of AS = assay: alcohol induced liver steatosis mouse model, Oil Red O staining of liver sections; format: in vivo, C57BL/6J mice
From the text: FIG. 1A-1B. […] (FIG. 1A) Representative liver sections from mice receiving control diet without ethanol+vehicle (left panel), ethanol containing diet+vehicle (center panel) or ethanol containing diet+98 (right panel).
Pathogen-free female C57BL/6J mice, aged 9 weeks (Jackson Laboratories, Bar Harbor, Me., USA) weighing 19-21 g were used in this study. C57BL/6 mice were offered solid PicoLab Certified Rodent LabDiet® 5053 (pellet) ad libitum during the acclimation period following which, all animals were switched to a Lieber-DeCarli 82′ Control (Catalog No: F1259SP, BioServ®) diet which was nutritionally complete. […] Digitized images of mouse liver sections (10 μm in thickness) were assessed semi-quantitatively for degree of steatosis using Image J software (NIH, Bethesda, Md.). Briefly, a 5 in^2 digital grid (Image J Command Menu: Plugin-Analyze-Grid) was placed on each image wherein lipid droplets in 6 grids per image were counted and the average number of oil droplets was recorded for each animal (n=6, per group). […] Statistical significance was determined through ANOVA between treatment and control groups using Graph Pad Prism 7.0 (GraphPad Software Inc., La Jolla, Calif., USA) at a confidence level of *p<0.001.
In contrast, the ethanol containing diet caused significant accumulation of lipid droplets (center panel in FIG. 1A). […] The data are quantified in FIG. 1B.

alcoholic steatosis, AS = settings: past studies; cited from earlier work
[4] = read-out: Binding affinity (Ki) at hCB1, radioligand displacement, CHO-K1 membranes, average of 3-6 measurements

| % Permeable (MDCK) | melting point | Kb (hCB1 [1]) | CB2 Ki/CB1 Ki selectivity ratio (hCB1 [2]) | Ki (hCB2) | SMILES | Kp [3] | also measured |
| --- | --- | --- | --- | --- | --- | --- | --- |
| 0% | 232 to 233 °C | 2 nM | 26000 | 53000 nM | O=S(=O)(NC1CCN(c2ncnc3c2nc(-c2ccccc2Cl)n3-c2ccc(Cl)cc2)CC1)c1ccc(F)cc1F [Compound 5, N-{1-[8-(2-Chlorophenyl)-9-(4-chlorophenyl)-9H-purin-6-yl]piperidin-4-yl}-2,4-difluorobenzene-1-sulfonamide] | – | MDCK BBB Assay (Basolateral/Apical Peak Area Ratio) Mean (MDCK): 0.0008; Ki (hCB1 [2]; [4]): 2 nM |
| – | 147 to 149 °C | 27 nM | 34 | 240 nM | FC(F)Oc1ccc(-n2c(-c3ccccc3Cl)nc3c(N4CCN(Cc5ccccc5Cl)CC4)ncnc32)cn1 [Compound 46, 8-(2-Chlorophenyl)-6-{4-[(2-chlorophenyl)methyl]piperazin-1-yl}-9-[6-(difluoromethoxy)pyridin-3-yl]-9H-purine] | – | Ki (hCB1 [2]): 7 nM |
| 0% | – | 44 nM | >11 | > 6000 nM | N=C(NC1CCN(c2ncnc3c2nc(-c2ccccc2Cl)n3-c2ccc(Cl)cc2)CC1)c1ccc(F)cc1 [Compound 26, N-{1-[8-(2-chlorophenyl)-9-(4-chlorophenyl)-9H-purin-6-yl]piperidin-4-yl}-4-fluorobenzenecarboximidamide] | 0.16 | MDCK BBB Assay (Basolateral/Apical Peak Area Ratio) Mean (MDCK): 0.0019; Ki (hCB1 [2]): 520 nM |
| – | – | – | – | – | Clc1ccc(-n2c(-c3ccccc3Cl)nc3c(N4CCN(Cc5cccc(Cl)c5)CC4)ncnc32)cc1 [Compound 99, 6-[4-(3-Chlorobenzyl)piperazin-1-yl]-8-(2-chlorophenyl)-9-(4-chlorophenyl)-9H-purine] | 0.09 | – |
| – | – | – | – | – | Clc1ccc(-n2c(-c3ccccc3Cl)nc3c(N4CCN(Cc5ccccc5Cl)CC4)ncnc32)cc1 [Compound 98, 6-[4-(2-Chlorobenzyl)piperazin-1-yl]-8-(2-chlorophenyl)-9-(4-chlorophenyl)-9H-purine] | 0.06 | hepatic lipid accumulation / liver steatosis (Oil Red O lipid droplets) (mouse model of AS; ethanol diet-fed mice, 1.25 mg/kg twice daily by oral gavage, two weeks, vs ethanol+vehicle, 1.25 mg/kg): significantly reduced hepatic lipid accumulation; also recorded: statistically significant reduction of liver steatosis; disease progression/development in a mouse model of AS (mouse model of AS; mouse model of alcoholic steatosis): block disease progression/development |
| – | – | – | – | – | Cc1c(C(=O)NN2CCCCC2)nn(-c2ccc(Cl)cc2Cl)c1-c1ccc(Cl)cc1 [rimonabant] | – | reduction of alcoholic steatosis (AS) (alcoholic steatosis, AS): effective in reducing AS |

| SMILES | % Permeable (MDCK) | melting point | Kb (hCB1 [1]) | CB2 Ki/CB1 Ki selectivity ratio (hCB1 [2]) | Ki (hCB2) | Kp [3] | also measured |
| --- | --- | --- | --- | --- | --- | --- | --- |
| O=C(Nc1ccccc1F)NC1CCN(c2ncnc3c2nc(-c2ccccc2Cl)n3-c2ccc(Cl)cc2)CC1 [Compound 19, 3-{1-[8-(2-Chlorophenyl)-9-(4-chlorophenyl)-9H-purin-6-yl]piperidin-4-yl}-1-(2-fluorophenyl)urea] | 0% | – | – | – | – | 0.03 | – |
| O=C(Nc1ccc(OC(F)F)nc1)N1CCN(c2ncnc3c2nc(-c2ccccc2Cl)n3-c2ccc(Cl)cc2)CC1 [Compound 44, 4-[8-(2-Chlorophenyl)-9-(4-chlorophenyl)-9H-purin-6-yl]-N-[6-(difluoromethoxy)pyridin-3-yl]piperazine-1-carboxamide] | – | 118 to 120 °C | – | – | 74000 nM | 0.18 | Ki (hCB1 [2]; [4]): 4 nM |
